How the values were obtained:
Experiment in all cases: radiometric filter-binding kinase assay, Kinase HotSpot
Settings in all cases: compound 0.5 µM; ATP 10 µM
MAPK14 (human) = MAPK14 (human) (UniProt Q16539)
TEK (human) = TEK (human) (UniProt Q02763)
CDK6 CCND3 (human) = CDK6 CCND3 (human) (UniProt P30281+Q00534)
WEE1 (human) = WEE1 (human) (UniProt P30291)
PBK (human) = PBK (human) (UniProt Q96KB5)
HIPK3 (human) = HIPK3 (human) (UniProt Q9H422)
HIPK1 (human) = HIPK1 (human) (UniProt Q86Z02)
MAP3K11 (human) = MAP3K11 (human) (UniProt Q16584)
MAP3K10 (human) = MAP3K10 (human) (UniProt Q02779)
FES (human) = FES (human) (UniProt P07332)
DYRK1A (human) = DYRK1A (human) (UniProt Q13627)
ERBB2 (human) = ERBB2 (human) (UniProt P04626)
PKN2 (human) = PKN2 (human) (UniProt Q16513)
Sequence of PKN2 (human) (Q16513 whole entry, looked up): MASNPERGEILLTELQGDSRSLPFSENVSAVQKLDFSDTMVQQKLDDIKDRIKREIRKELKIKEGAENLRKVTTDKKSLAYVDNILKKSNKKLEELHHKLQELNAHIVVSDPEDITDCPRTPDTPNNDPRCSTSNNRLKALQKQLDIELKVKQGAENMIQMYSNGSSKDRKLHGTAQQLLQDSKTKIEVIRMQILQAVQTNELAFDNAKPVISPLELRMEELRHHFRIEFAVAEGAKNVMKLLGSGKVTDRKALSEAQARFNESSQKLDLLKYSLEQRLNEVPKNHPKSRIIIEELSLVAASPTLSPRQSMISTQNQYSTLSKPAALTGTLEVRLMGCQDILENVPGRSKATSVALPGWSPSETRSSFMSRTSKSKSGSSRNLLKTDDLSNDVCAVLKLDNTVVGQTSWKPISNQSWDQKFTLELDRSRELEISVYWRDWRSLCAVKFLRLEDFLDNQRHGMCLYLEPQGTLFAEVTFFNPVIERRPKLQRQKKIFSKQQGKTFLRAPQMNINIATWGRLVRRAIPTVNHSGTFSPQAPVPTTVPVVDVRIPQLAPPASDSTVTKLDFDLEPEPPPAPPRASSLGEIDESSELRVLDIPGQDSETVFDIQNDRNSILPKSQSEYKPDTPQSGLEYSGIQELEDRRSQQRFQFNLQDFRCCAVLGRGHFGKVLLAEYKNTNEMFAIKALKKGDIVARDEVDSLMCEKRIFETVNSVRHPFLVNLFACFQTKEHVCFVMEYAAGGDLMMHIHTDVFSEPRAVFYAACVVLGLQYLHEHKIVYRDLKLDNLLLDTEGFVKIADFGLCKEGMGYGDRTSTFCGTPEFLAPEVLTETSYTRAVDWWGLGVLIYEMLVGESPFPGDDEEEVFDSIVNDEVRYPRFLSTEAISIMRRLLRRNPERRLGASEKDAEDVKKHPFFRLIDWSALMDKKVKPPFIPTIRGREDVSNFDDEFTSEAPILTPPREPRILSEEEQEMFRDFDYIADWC

PAK1 (human) = PAK1 (human) (UniProt Q13153)
PRKD2 (human) = PRKD2 (human) (UniProt Q9BZL6)
FLT1 (human) = FLT1 (human) (UniProt P17948)
EPHA8 (human) = EPHA8 (human) (UniProt P29322)
CSNK1G1 (human) = CSNK1G1 (human) (UniProt Q9HCP0)
ABL2 (human) = ABL2 (human) (UniProt P42684)
WNK2 (human) = WNK2 (human) (UniProt Q9Y3S1)
NEK1 (human) = NEK1 (human) (UniProt Q96PY6)
PRKCI (human) = PRKCI (human) (UniProt P41743)
BRSK2 (human) = BRSK2 (human) (UniProt Q8IWQ3)
STK25 (human) = STK25 (human) (UniProt O00506)
IKBKE (human) = IKBKE (human) (UniProt Q14164)
MARK4 (human) = MARK4 (human) (UniProt Q96L34)
SLK (human) = SLK (human) (UniProt Q9H2G2)
DYRK2 (human) = DYRK2 (human) (UniProt Q92630)
Sequence of DYRK2 (human) (Q92630 whole entry, looked up): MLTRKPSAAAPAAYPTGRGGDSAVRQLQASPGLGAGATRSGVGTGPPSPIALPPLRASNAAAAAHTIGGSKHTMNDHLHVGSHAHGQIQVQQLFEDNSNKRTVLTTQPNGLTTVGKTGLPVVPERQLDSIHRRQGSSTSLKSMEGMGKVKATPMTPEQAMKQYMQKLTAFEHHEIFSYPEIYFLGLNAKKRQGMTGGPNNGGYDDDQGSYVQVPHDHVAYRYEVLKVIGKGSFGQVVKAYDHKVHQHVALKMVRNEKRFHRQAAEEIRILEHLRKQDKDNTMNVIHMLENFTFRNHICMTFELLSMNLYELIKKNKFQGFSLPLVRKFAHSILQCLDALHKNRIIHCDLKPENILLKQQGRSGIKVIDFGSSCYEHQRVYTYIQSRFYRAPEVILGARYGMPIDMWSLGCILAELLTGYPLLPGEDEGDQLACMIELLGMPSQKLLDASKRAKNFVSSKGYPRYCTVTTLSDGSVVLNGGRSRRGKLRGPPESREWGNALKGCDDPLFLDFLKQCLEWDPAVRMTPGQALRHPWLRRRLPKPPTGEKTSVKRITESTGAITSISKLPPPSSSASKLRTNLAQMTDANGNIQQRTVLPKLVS

TSSK2 (human) = TSSK2 (human) (UniProt Q96PF2)
MATK (human) = MATK (human) (UniProt P42679)
PRKD1 (human) = PRKD1 (human) (UniProt Q15139)
CHEK1 (human) = CHEK1 (human) (UniProt O14757)
Sequence of CHEK1 (human) (O14757 whole entry, looked up): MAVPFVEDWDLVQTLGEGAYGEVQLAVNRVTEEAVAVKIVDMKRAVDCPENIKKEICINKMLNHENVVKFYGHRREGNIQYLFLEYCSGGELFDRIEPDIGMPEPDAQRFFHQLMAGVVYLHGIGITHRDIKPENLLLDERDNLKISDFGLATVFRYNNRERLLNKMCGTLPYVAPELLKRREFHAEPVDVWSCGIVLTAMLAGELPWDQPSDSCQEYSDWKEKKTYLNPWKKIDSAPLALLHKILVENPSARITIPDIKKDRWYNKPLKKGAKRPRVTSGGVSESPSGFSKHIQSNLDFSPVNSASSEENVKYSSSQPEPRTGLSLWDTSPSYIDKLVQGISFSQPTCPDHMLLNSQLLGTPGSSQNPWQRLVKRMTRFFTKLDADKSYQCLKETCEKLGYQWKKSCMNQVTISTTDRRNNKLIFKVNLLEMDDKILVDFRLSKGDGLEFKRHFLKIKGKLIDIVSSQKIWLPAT

MERTK (human) = MERTK (human) (UniProt Q12866)
Sequence of MERTK (human) (Q12866 whole entry, looked up): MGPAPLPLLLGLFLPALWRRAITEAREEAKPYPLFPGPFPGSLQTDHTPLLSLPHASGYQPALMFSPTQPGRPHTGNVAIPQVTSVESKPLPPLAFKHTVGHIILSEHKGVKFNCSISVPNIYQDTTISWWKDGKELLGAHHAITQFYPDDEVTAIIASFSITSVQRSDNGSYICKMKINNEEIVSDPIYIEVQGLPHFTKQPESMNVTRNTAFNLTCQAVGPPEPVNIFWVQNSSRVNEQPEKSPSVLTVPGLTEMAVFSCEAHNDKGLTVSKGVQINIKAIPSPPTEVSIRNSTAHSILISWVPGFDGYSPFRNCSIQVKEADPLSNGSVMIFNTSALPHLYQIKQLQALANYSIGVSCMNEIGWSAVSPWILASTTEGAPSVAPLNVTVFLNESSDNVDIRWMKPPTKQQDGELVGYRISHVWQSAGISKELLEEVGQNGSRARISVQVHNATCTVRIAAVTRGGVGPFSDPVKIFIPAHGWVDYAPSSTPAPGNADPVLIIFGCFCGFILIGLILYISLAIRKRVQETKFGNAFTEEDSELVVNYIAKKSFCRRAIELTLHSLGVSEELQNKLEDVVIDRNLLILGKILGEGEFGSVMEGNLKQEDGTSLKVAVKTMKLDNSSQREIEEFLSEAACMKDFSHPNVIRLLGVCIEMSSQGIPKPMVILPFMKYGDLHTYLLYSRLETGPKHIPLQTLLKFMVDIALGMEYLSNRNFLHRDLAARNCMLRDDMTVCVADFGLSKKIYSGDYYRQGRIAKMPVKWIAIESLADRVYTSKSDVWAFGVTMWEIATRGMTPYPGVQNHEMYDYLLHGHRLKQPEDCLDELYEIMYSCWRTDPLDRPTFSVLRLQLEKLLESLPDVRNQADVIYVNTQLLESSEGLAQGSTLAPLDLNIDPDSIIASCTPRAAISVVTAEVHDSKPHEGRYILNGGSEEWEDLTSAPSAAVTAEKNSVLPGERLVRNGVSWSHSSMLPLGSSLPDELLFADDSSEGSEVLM

NEK3 (human) = NEK3 (human) (UniProt P51956)
CSNK1D (human) = CSNK1D (human) (UniProt P48730)
ACVR1 (human) = ACVR1 (human) (UniProt Q04771)
MINK1 (human) = MINK1 (human) (UniProt Q8N4C8)
PHKG1 (human) = PHKG1 (human) (UniProt Q16816)
INSRR (human) = INSRR (human) (UniProt P14616)
ITK (human) = ITK (human) (UniProt Q08881)
CDC42BPB (human) = CDC42BPB (human) (UniProt Q9Y5S2)
EPHB1 (human) = EPHB1 (human) (UniProt P54762)

Sequence of CDK6 CCND3 (human) (P30281 whole entry, looked up): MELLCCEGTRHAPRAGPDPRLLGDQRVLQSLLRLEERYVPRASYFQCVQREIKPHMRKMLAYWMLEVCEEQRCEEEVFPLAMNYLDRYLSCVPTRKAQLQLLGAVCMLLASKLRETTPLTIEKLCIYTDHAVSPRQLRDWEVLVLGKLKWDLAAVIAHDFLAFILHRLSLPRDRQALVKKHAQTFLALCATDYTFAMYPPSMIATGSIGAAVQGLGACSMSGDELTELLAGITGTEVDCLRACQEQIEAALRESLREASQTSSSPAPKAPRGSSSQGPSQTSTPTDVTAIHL
Sequence of CDK6 CCND3 (human) (Q00534 whole entry, looked up): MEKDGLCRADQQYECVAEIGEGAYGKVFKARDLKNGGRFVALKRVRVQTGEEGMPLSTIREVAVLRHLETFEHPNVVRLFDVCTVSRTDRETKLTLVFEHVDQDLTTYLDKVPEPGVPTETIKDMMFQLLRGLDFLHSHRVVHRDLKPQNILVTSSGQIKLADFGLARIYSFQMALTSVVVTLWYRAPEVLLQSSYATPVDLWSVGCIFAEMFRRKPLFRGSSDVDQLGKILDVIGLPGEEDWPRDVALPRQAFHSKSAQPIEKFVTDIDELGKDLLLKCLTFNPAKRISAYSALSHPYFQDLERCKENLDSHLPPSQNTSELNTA
Sequence of HIPK3 (human) (Q9H422 whole entry, looked up): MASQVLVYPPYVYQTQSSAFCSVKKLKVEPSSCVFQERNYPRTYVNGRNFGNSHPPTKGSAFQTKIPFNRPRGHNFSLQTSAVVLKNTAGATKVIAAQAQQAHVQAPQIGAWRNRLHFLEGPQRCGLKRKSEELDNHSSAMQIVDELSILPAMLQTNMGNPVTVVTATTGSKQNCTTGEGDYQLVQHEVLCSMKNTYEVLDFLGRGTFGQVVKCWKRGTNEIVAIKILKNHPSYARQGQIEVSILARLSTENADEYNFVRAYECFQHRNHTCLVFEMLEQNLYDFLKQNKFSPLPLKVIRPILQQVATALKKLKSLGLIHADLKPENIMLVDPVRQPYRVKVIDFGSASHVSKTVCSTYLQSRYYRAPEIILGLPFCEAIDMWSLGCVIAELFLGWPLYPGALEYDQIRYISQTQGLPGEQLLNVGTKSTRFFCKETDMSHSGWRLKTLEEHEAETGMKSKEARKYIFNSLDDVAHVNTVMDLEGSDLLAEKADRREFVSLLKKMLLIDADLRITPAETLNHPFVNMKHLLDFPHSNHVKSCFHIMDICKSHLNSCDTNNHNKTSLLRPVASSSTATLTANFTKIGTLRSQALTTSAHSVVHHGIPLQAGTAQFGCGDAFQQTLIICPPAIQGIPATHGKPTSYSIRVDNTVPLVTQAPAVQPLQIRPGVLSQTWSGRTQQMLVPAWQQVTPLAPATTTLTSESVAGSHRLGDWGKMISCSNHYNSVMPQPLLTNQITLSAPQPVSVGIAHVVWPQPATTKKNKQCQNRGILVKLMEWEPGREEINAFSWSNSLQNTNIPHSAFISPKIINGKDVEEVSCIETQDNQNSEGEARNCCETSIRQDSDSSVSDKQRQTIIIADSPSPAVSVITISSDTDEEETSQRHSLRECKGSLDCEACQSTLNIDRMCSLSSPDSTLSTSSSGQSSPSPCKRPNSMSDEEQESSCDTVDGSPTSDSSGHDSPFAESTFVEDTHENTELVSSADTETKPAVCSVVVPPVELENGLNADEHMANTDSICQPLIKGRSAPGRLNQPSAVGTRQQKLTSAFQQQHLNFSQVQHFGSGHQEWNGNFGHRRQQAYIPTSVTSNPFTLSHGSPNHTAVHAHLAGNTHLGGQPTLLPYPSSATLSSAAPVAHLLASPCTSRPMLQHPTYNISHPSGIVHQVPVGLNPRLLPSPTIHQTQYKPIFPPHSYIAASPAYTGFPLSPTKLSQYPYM

O=C1NC(=O)C(c2cn(CCCO)c3ncccc23)=C1c1cnccn1
residual activity (MAPK14 (human)): 107%
residual activity (TEK (human)): 103%
residual activity (CDK6 CCND3 (human)): 84.4%
residual activity (WEE1 (human)): 96.2%
residual activity (PBK (human)): 94.9%
residual activity (HIPK3 (human)): 89.2%
residual activity (HIPK1 (human)): 84.2%
residual activity (MAP3K11 (human)): 80.8%
residual activity (MAP3K10 (human)): 91.3%
residual activity (FES (human)): 121%
residual activity (DYRK1A (human)): 108%
residual activity (ERBB2 (human)): 106%
residual activity (PKN2 (human)): 83.3%
residual activity (PAK1 (human)): 101%
residual activity (PRKD2 (human)): 118%
residual activity (FLT1 (human)): 89.4%
residual activity (EPHA8 (human)): 86.9%
residual activity (CSNK1G1 (human)): 101%
residual activity (ABL2 (human)): 83.7%
residual activity (WNK2 (human)): 104%
residual activity (NEK1 (human)): 91.9%
residual activity (PRKCI (human)): 87%
residual activity (BRSK2 (human)): 90.4%
residual activity (STK25 (human)): 78.9%
residual activity (IKBKE (human)): 90%
residual activity (MARK4 (human)): 93.9%
residual activity (SLK (human)): 106%
residual activity (DYRK2 (human)): 81.7%
residual activity (TSSK2 (human)): 119%
residual activity (MATK (human)): 95.5%
residual activity (PRKD1 (human)): 107%
residual activity (CHEK1 (human)): 141%
residual activity (MERTK (human)): 78.7%
residual activity (NEK3 (human)): 97.5%
residual activity (CSNK1D (human)): 99.4%
residual activity (ACVR1 (human)): 97%
residual activity (MINK1 (human)): 84.8%
residual activity (PHKG1 (human)): 87.2%
residual activity (INSRR (human)): 93.2%
residual activity (ITK (human)): 84.7%

O=C1NC(=O)C(c2c[nH]c3ccccc23)=C1c1c[nH]c2ccccc12
residual activity (MAPK14 (human)): 109%
residual activity (TEK (human)): 101%
residual activity (CDK6 CCND3 (human)): 103%
residual activity (WEE1 (human)): 98.1%
residual activity (PBK (human)): 100%
residual activity (HIPK3 (human)): 96%
residual activity (HIPK1 (human)): 102%
residual activity (MAP3K11 (human)): 68.7%
residual activity (MAP3K10 (human)): 79%
residual activity (FES (human)): 99.8%
residual activity (DYRK1A (human)): 80.8%
residual activity (ERBB2 (human)): 94.3%
residual activity (PKN2 (human)): 103%
residual activity (PAK1 (human)): 83.5%
residual activity (PRKD2 (human)): 87.4%
residual activity (FLT1 (human)): 53.9%
residual activity (EPHA8 (human)): 103%
residual activity (ABL2 (human)): 82.3%
residual activity (WNK2 (human)): 92.7%
residual activity (NEK1 (human)): 93.8%
residual activity (PRKCI (human)): 96.9%
residual activity (BRSK2 (human)): 86%
residual activity (STK25 (human)): 78.3%
residual activity (IKBKE (human)): 103%
residual activity (MARK4 (human)): 95.3%
residual activity (SLK (human)): 45.4%
residual activity (DYRK2 (human)): 97.7%
residual activity (TSSK2 (human)): 110%
residual activity (MATK (human)): 91.1%
residual activity (PRKD1 (human)): 97.6%
residual activity (CHEK1 (human)): 93.1%
residual activity (MERTK (human)): 86.1%
residual activity (NEK3 (human)): 88.2%
residual activity (CSNK1D (human)): 95.7%
residual activity (ACVR1 (human)): 97.1%
residual activity (CDC42BPB (human)): 99%
residual activity (MINK1 (human)): 83.4%
residual activity (PHKG1 (human)): 74.9%
residual activity (INSRR (human)): 90.1%
residual activity (ITK (human)): 102%
residual activity (EPHB1 (human)): 83.1%

Nc1nccc(-c2c(-c3ccc(F)cc3)ncn2C2CCNCC2)n1
residual activity (TEK (human)): 101%
residual activity (CDK6 CCND3 (human)): 95.5%
residual activity (WEE1 (human)): 106%
residual activity (PBK (human)): 94.9%
residual activity (HIPK3 (human)): 97.6%
residual activity (HIPK1 (human)): 101%
residual activity (MAP3K11 (human)): 96.3%
residual activity (MAP3K10 (human)): 99.8%
residual activity (FES (human)): 103%
residual activity (DYRK1A (human)): 96.3%
residual activity (ERBB2 (human)): 93.7%
residual activity (PKN2 (human)): 97.1%
residual activity (PAK1 (human)): 97.4%
residual activity (PRKD2 (human)): 50.4%
residual activity (FLT1 (human)): 89.3%
residual activity (EPHA8 (human)): 101%
residual activity (CSNK1G1 (human)): 83.1%
residual activity (ABL2 (human)): 95.1%
residual activity (WNK2 (human)): 93.1%
residual activity (NEK1 (human)): 100%
residual activity (PRKCI (human)): 98.5%
residual activity (BRSK2 (human)): 96.6%
residual activity (STK25 (human)): 99.8%
residual activity (IKBKE (human)): 99.5%
residual activity (MARK4 (human)): 97.4%
residual activity (SLK (human)): 99.9%
residual activity (DYRK2 (human)): 95.9%
residual activity (TSSK2 (human)): 100%
residual activity (MATK (human)): 99.5%
residual activity (PRKD1 (human)): 54.6%
residual activity (CHEK1 (human)): 99.8%
residual activity (MERTK (human)): 98%
residual activity (NEK3 (human)): 99%
residual activity (CSNK1D (human)): 1.25%
residual activity (ACVR1 (human)): 86.5%
residual activity (CDC42BPB (human)): 101%
residual activity (MINK1 (human)): 96.1%
residual activity (PHKG1 (human)): 98.3%
residual activity (INSRR (human)): 103%
residual activity (ITK (human)): 90.5%
residual activity (EPHB1 (human)): 99.9%

— the kinase profiling compilation of Christmann-Franck et al. (2016)
